Common to all, as to format: biochemical
One experiment concerns the target T1, PI3Kδ (Homo sapiens, UniProt O00329).
T1 construct: purchased Millipore Ltd (Billerica, Mass.)
Put plainly: In vitro determination of the PI3K enzyme inhibitory activity in the cell free assay (ADP-Glo Kinase Assay), PI3Kδ. The conditions noted are these: ATP 80 μM, read-out: PI3K delta inhibition. Summed up: (§1)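 Human recombinant PI3K isoforms with PI/PS lipid substrates (50 μM in 2× buffer, Tris pH 7.5, DTT) were run 60 min at room temperature. Final ATP was 50 μM for α, 100 μM for β, 30 μM for γ and 80 μM for δ. ADP formation was read by ADP-Glo luminescence, and IC50 came from a four-parameter logistic fit.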
A general note: In ADP-Glo the light output rises with the ADP produced.

A further experiment concerns the target T2, PI3Kβ (Homo sapiens, UniProt P42338).
T2 construct: purchased Millipore Ltd (Billerica, Mass.)
Nature of the experiment: In vitro determination of the PI3K enzyme inhibitory activity in the cell free assay (ADP-Glo Kinase Assay), PI3Kβ. To be noted: ATP 100 μM, read-out: PI3K beta inhibition. Summed up:
as §1

The target in another experiment is T3, PI3Kα (Homo sapiens, UniProt P42336).
T3 construct: purchased Millipore Ltd (Billerica, Mass.)
T3 sequence (P42336 whole entry): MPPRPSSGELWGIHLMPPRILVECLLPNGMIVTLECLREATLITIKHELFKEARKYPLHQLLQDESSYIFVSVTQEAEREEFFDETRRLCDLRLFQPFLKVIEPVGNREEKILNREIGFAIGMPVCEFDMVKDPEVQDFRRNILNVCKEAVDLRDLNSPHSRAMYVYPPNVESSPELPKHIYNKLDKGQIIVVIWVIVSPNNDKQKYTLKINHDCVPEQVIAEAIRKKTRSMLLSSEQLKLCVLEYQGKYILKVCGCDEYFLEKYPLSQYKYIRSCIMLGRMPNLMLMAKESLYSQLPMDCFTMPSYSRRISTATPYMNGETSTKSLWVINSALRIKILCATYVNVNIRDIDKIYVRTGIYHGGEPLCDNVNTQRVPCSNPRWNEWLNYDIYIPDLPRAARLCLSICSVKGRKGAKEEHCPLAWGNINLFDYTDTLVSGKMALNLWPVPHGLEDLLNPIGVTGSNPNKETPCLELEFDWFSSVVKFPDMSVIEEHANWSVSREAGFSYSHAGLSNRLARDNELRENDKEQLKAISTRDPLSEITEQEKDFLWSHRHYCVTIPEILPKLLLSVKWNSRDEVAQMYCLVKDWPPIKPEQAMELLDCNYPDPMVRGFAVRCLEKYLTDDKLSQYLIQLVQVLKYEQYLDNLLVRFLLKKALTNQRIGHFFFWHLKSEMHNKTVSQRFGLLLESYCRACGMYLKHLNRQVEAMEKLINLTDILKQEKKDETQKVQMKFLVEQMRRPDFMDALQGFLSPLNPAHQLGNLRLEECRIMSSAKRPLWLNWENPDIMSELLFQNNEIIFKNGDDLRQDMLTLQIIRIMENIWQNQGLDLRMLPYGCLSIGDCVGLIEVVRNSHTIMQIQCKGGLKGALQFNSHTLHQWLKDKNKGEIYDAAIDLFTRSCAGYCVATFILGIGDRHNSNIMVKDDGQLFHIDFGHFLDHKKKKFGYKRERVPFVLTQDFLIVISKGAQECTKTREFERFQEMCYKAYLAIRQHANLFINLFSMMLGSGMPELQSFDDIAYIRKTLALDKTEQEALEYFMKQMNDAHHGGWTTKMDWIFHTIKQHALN
T3 sequence (P27986 whole entry partner): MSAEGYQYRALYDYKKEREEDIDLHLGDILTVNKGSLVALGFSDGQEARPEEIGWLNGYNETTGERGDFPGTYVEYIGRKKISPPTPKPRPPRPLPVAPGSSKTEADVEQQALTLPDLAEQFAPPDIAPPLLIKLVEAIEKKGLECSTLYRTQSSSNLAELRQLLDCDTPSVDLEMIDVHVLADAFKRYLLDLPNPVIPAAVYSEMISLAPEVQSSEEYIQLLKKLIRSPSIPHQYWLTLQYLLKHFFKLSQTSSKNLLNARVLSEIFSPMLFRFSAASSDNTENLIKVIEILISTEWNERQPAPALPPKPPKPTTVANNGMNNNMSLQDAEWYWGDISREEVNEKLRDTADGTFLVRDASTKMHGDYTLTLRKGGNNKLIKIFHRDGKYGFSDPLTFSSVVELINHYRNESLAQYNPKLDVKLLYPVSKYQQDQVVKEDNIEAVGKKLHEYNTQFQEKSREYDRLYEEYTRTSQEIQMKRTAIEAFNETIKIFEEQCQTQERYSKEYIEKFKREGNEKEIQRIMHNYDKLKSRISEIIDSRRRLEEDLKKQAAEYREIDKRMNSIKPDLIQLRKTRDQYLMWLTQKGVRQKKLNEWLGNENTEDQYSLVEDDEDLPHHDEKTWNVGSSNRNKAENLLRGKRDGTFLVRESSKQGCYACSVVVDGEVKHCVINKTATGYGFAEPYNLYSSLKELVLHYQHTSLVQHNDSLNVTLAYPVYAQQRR
Nature of the experiment: In vitro determination of the PI3K enzyme inhibitory activity in the cell free assay (ADP-Glo Kinase Assay), PI3Kα. The conditions noted are these: ATP 50 μM, read-out: PI3K alpha inhibition. In short, it runs like this: as §1

The target in the next experiment is T4, PI3Kγ (Homo sapiens, UniProt P48736).
T4 construct: purchased Millipore Ltd (Billerica, Mass.)
T4 sequence (P48736 whole entry): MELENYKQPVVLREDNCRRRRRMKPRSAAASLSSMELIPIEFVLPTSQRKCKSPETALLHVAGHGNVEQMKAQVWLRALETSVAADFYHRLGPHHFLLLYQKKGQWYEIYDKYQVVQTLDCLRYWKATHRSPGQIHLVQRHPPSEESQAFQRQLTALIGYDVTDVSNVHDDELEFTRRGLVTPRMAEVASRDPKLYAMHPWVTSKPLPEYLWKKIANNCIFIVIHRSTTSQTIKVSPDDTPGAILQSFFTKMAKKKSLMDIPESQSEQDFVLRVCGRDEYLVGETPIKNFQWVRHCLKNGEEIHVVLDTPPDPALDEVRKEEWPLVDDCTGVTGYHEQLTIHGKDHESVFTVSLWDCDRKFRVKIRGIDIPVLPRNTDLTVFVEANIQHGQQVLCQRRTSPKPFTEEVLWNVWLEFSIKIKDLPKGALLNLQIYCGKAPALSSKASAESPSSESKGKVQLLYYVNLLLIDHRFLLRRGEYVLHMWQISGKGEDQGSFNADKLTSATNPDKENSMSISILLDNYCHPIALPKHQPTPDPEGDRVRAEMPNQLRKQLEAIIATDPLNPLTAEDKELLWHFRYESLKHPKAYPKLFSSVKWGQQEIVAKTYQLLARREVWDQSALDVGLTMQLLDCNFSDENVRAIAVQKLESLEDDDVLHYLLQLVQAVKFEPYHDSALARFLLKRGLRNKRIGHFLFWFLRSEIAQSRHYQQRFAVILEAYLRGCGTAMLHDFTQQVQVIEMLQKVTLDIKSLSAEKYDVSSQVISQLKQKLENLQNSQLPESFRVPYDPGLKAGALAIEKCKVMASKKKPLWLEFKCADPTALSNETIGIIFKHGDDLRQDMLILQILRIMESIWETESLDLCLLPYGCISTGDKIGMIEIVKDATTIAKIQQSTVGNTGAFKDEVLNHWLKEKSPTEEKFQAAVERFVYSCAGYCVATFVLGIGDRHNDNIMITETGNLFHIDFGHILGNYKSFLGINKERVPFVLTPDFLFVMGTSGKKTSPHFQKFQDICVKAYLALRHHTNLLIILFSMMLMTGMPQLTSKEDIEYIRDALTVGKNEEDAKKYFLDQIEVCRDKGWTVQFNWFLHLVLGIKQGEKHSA
Nature of the experiment: In vitro determination of the PI3K enzyme inhibitory activity in the cell free assay (ADP-Glo Kinase Assay), PI3Kγ. To be noted: ATP 30 μM, read-out: PI3K gamma inhibition. Summed up: as §1

T1 sequence (O00329 whole entry): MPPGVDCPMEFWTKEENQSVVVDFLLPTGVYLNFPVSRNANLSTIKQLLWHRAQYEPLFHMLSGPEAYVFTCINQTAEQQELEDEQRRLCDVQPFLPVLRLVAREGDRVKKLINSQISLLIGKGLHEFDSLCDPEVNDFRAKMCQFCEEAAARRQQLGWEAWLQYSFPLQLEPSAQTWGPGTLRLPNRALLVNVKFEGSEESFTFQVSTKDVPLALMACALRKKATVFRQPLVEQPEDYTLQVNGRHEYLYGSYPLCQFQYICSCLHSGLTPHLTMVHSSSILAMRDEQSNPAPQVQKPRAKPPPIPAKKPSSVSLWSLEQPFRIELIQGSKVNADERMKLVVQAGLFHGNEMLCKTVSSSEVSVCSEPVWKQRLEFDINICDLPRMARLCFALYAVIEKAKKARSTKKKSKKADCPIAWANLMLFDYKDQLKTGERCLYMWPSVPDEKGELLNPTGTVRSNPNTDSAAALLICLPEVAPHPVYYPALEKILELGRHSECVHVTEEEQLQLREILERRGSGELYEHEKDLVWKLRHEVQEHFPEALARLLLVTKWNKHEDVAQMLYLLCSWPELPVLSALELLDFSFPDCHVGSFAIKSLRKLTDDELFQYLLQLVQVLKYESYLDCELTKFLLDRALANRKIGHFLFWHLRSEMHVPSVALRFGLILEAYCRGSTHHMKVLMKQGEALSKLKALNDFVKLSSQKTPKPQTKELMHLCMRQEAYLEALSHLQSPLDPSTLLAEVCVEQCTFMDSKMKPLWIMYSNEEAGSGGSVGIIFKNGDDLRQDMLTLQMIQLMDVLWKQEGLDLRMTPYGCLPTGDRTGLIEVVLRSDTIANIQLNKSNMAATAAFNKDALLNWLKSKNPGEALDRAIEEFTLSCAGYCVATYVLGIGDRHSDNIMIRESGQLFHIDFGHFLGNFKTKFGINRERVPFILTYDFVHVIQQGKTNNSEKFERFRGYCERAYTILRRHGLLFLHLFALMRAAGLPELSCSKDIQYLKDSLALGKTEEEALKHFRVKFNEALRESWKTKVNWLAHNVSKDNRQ
T1 sequence (P27986 whole entry partner): as the sequence (P27986 whole entry partner) above
T2 sequence (P42338 whole entry): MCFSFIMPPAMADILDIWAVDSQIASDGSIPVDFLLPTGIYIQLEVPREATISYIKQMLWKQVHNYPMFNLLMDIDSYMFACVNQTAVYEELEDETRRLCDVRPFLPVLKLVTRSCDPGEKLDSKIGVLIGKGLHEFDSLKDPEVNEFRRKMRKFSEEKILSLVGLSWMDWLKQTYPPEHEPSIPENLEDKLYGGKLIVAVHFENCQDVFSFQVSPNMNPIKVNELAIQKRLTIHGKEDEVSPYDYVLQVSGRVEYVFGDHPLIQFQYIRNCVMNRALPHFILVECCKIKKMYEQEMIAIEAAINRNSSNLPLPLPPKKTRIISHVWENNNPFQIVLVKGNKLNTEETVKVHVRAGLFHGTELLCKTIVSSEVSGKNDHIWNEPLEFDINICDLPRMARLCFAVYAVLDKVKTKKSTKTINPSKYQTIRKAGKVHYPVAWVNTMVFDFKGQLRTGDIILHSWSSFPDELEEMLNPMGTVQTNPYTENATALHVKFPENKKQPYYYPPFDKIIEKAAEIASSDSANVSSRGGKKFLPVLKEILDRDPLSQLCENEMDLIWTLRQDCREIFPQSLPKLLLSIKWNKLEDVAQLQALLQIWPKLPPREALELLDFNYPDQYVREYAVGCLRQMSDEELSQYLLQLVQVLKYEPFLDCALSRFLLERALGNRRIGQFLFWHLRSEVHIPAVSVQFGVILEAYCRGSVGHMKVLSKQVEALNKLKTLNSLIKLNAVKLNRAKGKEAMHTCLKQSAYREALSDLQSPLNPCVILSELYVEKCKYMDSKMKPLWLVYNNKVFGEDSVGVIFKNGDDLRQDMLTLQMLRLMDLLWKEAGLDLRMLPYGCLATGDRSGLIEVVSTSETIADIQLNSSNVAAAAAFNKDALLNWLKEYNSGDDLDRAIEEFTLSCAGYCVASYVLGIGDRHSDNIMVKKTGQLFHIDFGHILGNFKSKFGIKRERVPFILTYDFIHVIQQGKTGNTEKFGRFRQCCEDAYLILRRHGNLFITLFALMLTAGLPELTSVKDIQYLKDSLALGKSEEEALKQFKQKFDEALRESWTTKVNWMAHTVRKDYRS
T2 sequence (P27986 whole entry partner): as the sequence (P27986 whole entry partner) above

In the case of `CC(c1cc2ccccn2c1-c1ccccn1)n1nc(-c2cc(F)cc(-c3nnn[nH]3)c2)c2c(N)ncnc21` (stereo not shown) [Example 78, 3-[3-fluoro-5-(1H-1,2,3,4-tetrazol-5-yl)phenyl]-1-{1-[3-(pyridin-2-yl)indolizin-2-yl]ethyl}-1H-pyrazolo[3,4-d]pyrimidin-4-amine:ammonia 2:1], the IC50 at PI3Kδ, on PI3Kβ, on PI3Kα and on PI3Kγ was > 1000 nM throughout.

Regarding `CC(c1cc2ccccn2c1-c1ccccc1)n1nc(-c2cc(O)cc(F)c2)c2c(N)ncnc21` (stereo not shown) [Example 85, 3-{4-amino-1-[1-(3-phenylindolizin-2-yl)ethyl]-1H-pyrazolo[3,4-d]pyrimidin-3-yl}-5-fluorophenol], the IC50 is 10 to 1000 nM at PI3Kδ, 10 to 1000 nM at PI3Kβ, > 1000 nM on PI3Kα and > 1000 nM on PI3Kγ.

Consider `CC(c1cc2ccccn2c1-c1ccccc1F)n1nc(-c2cc(O)cc(F)c2)c2c(N)ncnc21` (stereo not shown) [Example 86, 3-(4-amino-1-{1-[3-(2-fluorophenyl)indolizin-2-yl]ethyl}-1H-pyrazolo[3,4-d]pyrimidin-3-yl)-5-fluoro-phenol], for which the IC50 at PI3Kδ was 10 to 1000 nM; on PI3Kβ it was > 1000 nM; at PI3Kα, > 1000 nM; on PI3Kγ, 10 to 1000 nM.

With `Cc1ccc2cc(C(C)n3nc(-c4cc(O)cc(F)c4)c4c(N)ncnc43)c(-c3ccccn3)n2c1` (stereo not shown) [Example 87, 3-(4-amino-1-{1-[6-methyl-3-(pyridin-2-yl)indolizin-2-yl]ethyl}-1H-pyrazolo[3,4-d]pyrimidin-3-yl)-5-fluorophenol], the IC50 at PI3Kδ is 10 to 1000 nM; on PI3Kβ it was 10 to 1000 nM; on PI3Kα it was > 1000 nM; at PI3Kγ it was > 1000 nM.

For `CC(c1cc2ccc(C(F)(F)F)cn2c1-c1ccccn1)n1nc(-c2cc(O)cc(F)c2)c2c(N)ncnc21` (stereo not shown) [Example 88, 3-(4-amino-1-{1-[3-(pyridin-2-yl)-6-(trifluoromethyl)indolizin-2-yl]ethyl}-1H-pyrazolo[3,4-d]pyrimidin-3-yl)-5-fluorophenol], the IC50 on PI3Kδ was 10 to 1000 nM; at PI3Kβ, > 1000 nM; on PI3Kα, > 1000 nM; on PI3Kγ, > 1000 nM.

Consider `Cc1c(C(C)n2nc(-c3cc(O)cc(F)c3)c3c(N)ncnc32)c(-c2ccccn2)n2ccccc12` (stereo not shown) [Example 89, 3-(4-amino-1-{1-[1-methyl-3-(pyridin-2-yl)indolizin-2-yl]ethyl}-1H-pyrazolo[3,4-d]pyrimidin-3-yl)-5-fluorophenol], for which the IC50 on PI3Kδ, on PI3Kβ, at PI3Kα and on PI3Kγ was 10 to 1000 nM each time.

Regarding `CC(c1cc2ccccn2c1-c1ccc(CN2CCOCC2)s1)n1nc(-c2cc(O)cc(F)c2)c2c(N)ncnc21` (stereo not shown) [Example 90, 3-[4-amino-1-(1-{3-[5-(morpholin-4-ylmethyl)thiophen-2-yl]indolizin-2-yl}ethyl)-1H-pyrazolo[3,4-d]pyrimidin-3-yl]-5-fluorophenol], the IC50 on PI3Kδ is < 10 nM; at PI3Kβ, 10 to 1000 nM; on PI3Kα it was 10 to 1000 nM; on PI3Kγ it was 10 to 1000 nM.

`CC(c1cc2ccccn2c1-c1ccc(CN2CCOCC2)cc1)n1nc(-c2cc(O)cc(F)c2)c2c(N)ncnc21` (stereo not shown) [Example 91, 3-[4-amino-1-(1-{3-[4-(morpholin-4-ylmethyl)phenyl]indolizin-2-yl}ethyl)-1H-pyrazolo[3,4-d]pyrimidin-3-yl]-5-fluorophenol]: the IC50 at PI3Kδ was 10 to 1000 nM; on PI3Kβ, > 1000 nM; at PI3Kα, > 1000 nM; on PI3Kγ it was > 1000 nM.

For `CC(c1cc2ccccn2c1-c1ccc(CN(C)C)cc1)n1nc(-c2cc(O)cc(F)c2)c2c(N)ncnc21` (stereo not shown) [Example 92, 3-{4-amino-1-[1-(3-{4-[(dimethylamino)methyl]phenyl}indolizin-2-yl)ethyl]-1H-pyrazolo[3,4-d]pyrimidin-3-yl}-5-fluorophenol], the IC50 on PI3Kδ was 10 to 1000 nM; on PI3Kβ, 10 to 1000 nM; at PI3Kα, > 1000 nM; at PI3Kγ it was > 1000 nM.

Regarding `CC(c1cc2ccccn2c1-c1cncs1)n1nc(-c2cc(O)cc(F)c2)c2c(N)ncnc21` (stereo not shown) [Example 94, 3-(4-amino-1-{1-[3-(1,3-thiazol-5-yl)indolizin-2-yl]ethyl}-1H-pyrazolo[3,4-d]pyrimidin-3-yl)-5-fluorophenol], the IC50 on PI3Kδ was < 10 nM; on PI3Kβ it was 10 to 1000 nM; at PI3Kα, 10 to 1000 nM; at PI3Kγ, 10 to 1000 nM.

As for `CC(c1cc2ccccn2c1N1CCCC1=O)n1nc(-c2cc(O)cc(F)c2)c2c(N)ncnc21` (stereo not shown) [Example 95, 1-(2-{1-[4-amino-3-(3-fluoro-5-hydroxyphenyl)-1H-pyrazolo[3,4-d]pyrimidin-1-yl]ethyl}indolizin-3-yl)pyrrolidin-2-one], the IC50 on PI3Kδ is < 10 nM; on PI3Kβ, 10 to 1000 nM; at PI3Kα, 10 to 1000 nM; at PI3Kγ it was 10 to 1000 nM.

Consider `CC(c1cc2cccnn2c1-c1ccccn1)n1nc(-c2cc(O)cc(F)c2)c2c(N)ncnc21` (stereo not shown) [Example 96, 3-(4-amino-1-{1-[7-(pyridin-2-yl)pyrrolo[1,2-b]pyridazin-6-yl]ethyl}-1H-pyrazolo[3,4-d]pyrimidin-3-yl)-5-fluorophenol], for which the IC50 on PI3Kδ is < 10 nM; on PI3Kβ, 10 to 1000 nM; at PI3Kα, > 1000 nM; at PI3Kγ, > 1000 nM.

`Nc1ncnc2c1c(-c1cc(O)cc(F)c1)nn2Cc1cc2ccccn2c1-c1ccccn1` [Example 97, 3-(4-amino-1-{[3-(pyridin-2-yl)indolizin-2-yl]methyl}-1H-pyrazolo[3,4-d]pyrimidin-3-yl)-5-fluorophenol]: the IC50 was < 10 nM at PI3Kδ, 10 to 1000 nM at PI3Kβ, 10 to 1000 nM at PI3Kα and 10 to 1000 nM on PI3Kγ.

For `Nc1ncnc2c1c(-c1cc(O)cc(F)c1)nn2Cc1cc2ccccn2c1-c1cccnc1` [Example 98, 3-(4-amino-1-{[3-(pyridin-3-yl)indolizin-2-yl]methyl}-1H-pyrazolo[3,4-d]pyrimidin-3-yl)-5-fluorophenol], the IC50 on PI3Kδ, on PI3Kβ, on PI3Kα and at PI3Kγ was 10 to 1000 nM each time.

Turning to `Nc1ncnc2c1c(-c1cc(O)cc(F)c1)nn2Cc1cc2ccccn2c1-c1ccncc1` [Example 99, 3-(4-amino-1-{[3-(pyridin-4-yl)indolizin-2-yl]methyl}-1H-pyrazolo[3,4-d]pyrimidin-3-yl)-5-fluorophenol], the IC50 is < 10 nM on PI3Kδ, 10 to 1000 nM on PI3Kβ, 10 to 1000 nM on PI3Kα and 10 to 1000 nM on PI3Kγ.

Take `Nc1ncnc2c1c(-c1cc(O)cc(F)c1)nn2Cc1cc2cccnn2c1-c1ccccn1` [Example 100, 3-(4-amino-1-{[7-(pyridin-2-yl)pyrrolo[1,2-b]pyridazin-6-yl]methyl}-1H-pyrazolo[3,4-d]pyrimidin-3-yl)-5-fluorophenol]: the IC50 on PI3Kδ is < 10 nM; on PI3Kβ, 10 to 1000 nM; on PI3Kα, > 1000 nM; on PI3Kγ it was 10 to 1000 nM.

On to `CC(c1cc2ccccn2c1C1=CCNCC1)n1nc(-c2cc(O)cc(F)c2)c2c(N)ncnc21` (stereo not shown) [Example 101, 3-(4-amino-1-{1-[3-(1,2,3,6-tetrahydropyridin-4-yl)indolizin-2-yl]ethyl}-1H-pyrazolo[3,4-d]pyrimidin-3-yl)-5-fluorophenol], for which the IC50 at PI3Kδ is 10 to 1000 nM; on PI3Kβ, 10 to 1000 nM; on PI3Kα it was > 1000 nM; at PI3Kγ, > 1000 nM.

For `CC(c1cc2ccccn2c1-c1ccccn1)n1nc(C#CCO)c2c(N)ncnc21` (stereo not shown) [Example 102, 3-(4-amino-1-{1-[3-(pyridin-2-yl)indolizin-2-yl]ethyl}-1H-pyrazolo[3,4-d]pyrimidin-3-yl)prop-2-yn-1-ol], the IC50 is 10 to 1000 nM on PI3Kδ, > 1000 nM on PI3Kβ, > 1000 nM at PI3Kα and > 1000 nM on PI3Kγ.

In the case of `CC(c1cc2ccccn2c1-c1ccccn1)n1nc(-c2cnc(N)s2)c2c(N)ncnc21` (stereo not shown) [Example 103, 5-(4-amino-1-{1-[3-(pyridin-2-yl)indolizin-2-yl]ethyl}-1H-pyrazolo[3,4-d]pyrimidin-3-yl)-1,3-thiazol-2-amine], the IC50 on PI3Kδ is 10 to 1000 nM; on PI3Kβ, 10 to 1000 nM; on PI3Kα, > 1000 nM; at PI3Kγ it was 10 to 1000 nM.

On to `CC(c1cc2cc(Cl)ccn2c1-c1ccccn1)n1nc(-c2cc(O)cc(F)c2)c2c(N)ncnc21` (stereo not shown) [Example 104, 3-(4-amino-1-{1-[7-chloro-3-(pyridin-2-yl)indolizin-2-yl]ethyl}-1H-pyrazolo[3,4-d]pyrimidin-3-yl)-5-fluorophenol], for which the IC50 at PI3Kδ is < 10 nM; at PI3Kβ, 10 to 1000 nM; on PI3Kα it was 10 to 1000 nM; on PI3Kγ, 10 to 1000 nM.

With `Cc1ccn2c(-c3ccccn3)c(C(C)n3nc(-c4cc(O)cc(F)c4)c4c(N)ncnc43)cc2c1` (stereo not shown) [Example 105, 3-(4-amino-1-{1-[7-methyl-3-(pyridin-2-yl)indolizin-2-yl]ethyl}-1H-pyrazolo[3,4-d]pyrimidin-3-yl)-5-fluorophenol], the IC50 was 10 to 1000 nM at PI3Kδ, > 1000 nM at PI3Kβ, > 1000 nM at PI3Kα and > 1000 nM on PI3Kγ.

`Cc1cc(-c2c(C(C)n3nc(-c4cc(O)cc(F)c4)c4c(N)ncnc43)cc3ccccn23)ccn1` (stereo not shown) [Example 106, 3-(4-amino-1-{1-[3-(2-methylpyridin-4-yl)indolizin-2-yl]ethyl}-1H-pyrazolo[3,4-d]pyrimidin-3-yl)-5-fluorophenol]: the IC50 is < 10 nM at PI3Kδ, 10 to 1000 nM at PI3Kβ, > 1000 nM at PI3Kα and 10 to 1000 nM at PI3Kγ.

The values above are taken from patent publication US9527869B2, “Indolizine derivatives as phoshoinositide 3-kinases inhibitors” (CHIESI FARMACEUTICI S.P.A., priority 2014, dated 2016).
